Source: patent US6369246B2, “Synthesis and pharmaceuticals of novel 9-substituted-1, 5-dichloroanthracene analogs” (Dr. Keith Chan, GloboAsia, LLC, priority 1999, dated 2002)
Read-outs that look alike come from different tables or passages of the source.

How the values were obtained:
[1] = tested on: iron-induced lipid peroxidation in rat brain homogenates; assay: Lipid peroxidation assay (TBA); assay type: biochemical, Wistar rats; settings: ferrous ion 200 μM, 37° C. 30 min; for % Inhibition (1 μM), relative percentage of inhibition: 1 μM compound; for % Inhibition (10 μM), relative percentage of inhibition: 10 μM compound
Method: Rat brain homogenate was prepared from the brains of freshly killed Wistar rats and its peroxidation. In the presence of iron ions was measured by the thiobarbituric acid (TBA). Teng, C. M. et al., Eur. J. Pharmacol., 303, 129-139 (1996). Tetramethoxypropane was used as a standard, and the results were expressed as nanomoles of malondialdehyde equivalents per milligram of protein of rat brain homogenates. In brief, whole brain tissue, excluding the cerebellum, was washed and homogenized in 10 volumes of ice-cold Krebs buffer (10 mM N-2 hydroxyethyl-piperazine-N′-2-ethanesulfonic acid (Hepes), 10 mM glucose, 140 mM NaCl, 3.6 mM KCl, 1.5 mM CaCl2, 1.4 mM KH2PO4, 0.7 mM MgSO4, pH 7.4) using a glass Dounce homogenizer. […] The reaction mixture with test compounds or vehicle was incubated for 10 min, then stimulated by addition of ferrous ion (200 μM freshly prepared), and maintained at 37° C. for 30 min. The reactions were terminated by adding […] of ice-cold trichloroacetic acid solution (4% (w/v) in 0.3 N HCl) and […], of thiobarbituric acid-reactive substance reagent (0.5% (w/v) thiobarbituric acid in 50% (v/v) acetic acid). After boiling for 15 min, the samples were cooled and extracted with n-butanol. The extent of lipid peroxidation was estimated as thiobarbituric acid-reactive substances and was read at 532 nm in a spectrophotometer (Shimadzu UV-160).

[2] = tested on: GBM cell line (human cervical carcinoma cells of ME 180 (GBM8401)); assay: Growth inhibition assay, GBM cell line; assay type: cell-based; settings: cell counting, read-out: IC50 GBM (concentration required to inhibit cell growth by 50% relative to controls)
Method: (§1) Growth inhibition was measured in three human carcinoma cell lines (GBK KB and CHO) using a previously described […] assay. Hwang, J.-M. et al., Chin. Med. J (Taipei), 51, 166-175 (1993). Human oral epidermoid carcinoma cells (KB cell line), human cervical carcinoma cells of ME 180 (GBM8401) and Chinese hamster ovary (CHO) cells grown in plateau phase were used in all experiments. Each cell line was further divided into control and experimental groups, respectively.
(§2) Stock solutions of the test compounds were prepared in DMSO and diluted with DMEM to give a final concentration of DMSO of 0.2%. Controls were performed with DMSO or with medium alone. The medium was removed and each well was rinsed with 100 μL PBS 48 hours after addition of the test compound to the culture. The cells were then incubated with sterile 0.5% trypsin, 0.2% EDTA in PBS for 20 minutes at 37° C. The detached cells from each well were suspended in DMEM and dispersed into single cells by gentle pipeting through an Eppendorf pipette and cell growth was determined directly by counting the cells in a Neubauer counting chamber using phase contrast microscopy. Inhibition was calculated by comparison of the mean values of the test compound (N=3) with the control (N=6−8) activity: (1-test compound/control) ×100. Inhibition was statistically significant compared to that of control (Student's t Test; P=0.05). IC50 values (concentration required to inhibit cell growth by 50%) were determined for each agent which was derived by interpolation of a log inhibitor concentration versus response plot using four or more different concentrations of the compound spanning the 50% inhibition point.

[3] = tested on: Human oral epidermoid carcinoma cells (KB cell line); assay: Growth inhibition assay, KB cell line; assay type: cell-based; settings: 48 hours, cell counting, read-out: IC50 KB (concentration required to inhibit cell growth by 50% relative to controls)
Method: as §1, §2

[4] = tested on: Chinese hamster ovary (CHO) cells; assay: Growth inhibition assay, CHO cells; assay type: cell-based; settings: 48 hours, cell counting, read-out: IC50 CHO (concentration required to inhibit cell growth by 50% relative to controls)
Method: as §1, §2

| Compound | % Inhibition (1 μM), relative percentage of inhibition [1] | % Inhibition (10 μM), relative percentage of inhibition [1] | IC50 ([2]; 48 hours) | IC50 [3] | IC50 ([4]; Cricetulus griseus) | IC50 ([2]; Homo sapiens, ME-180, 48 hours) | IC50 ([3]; Homo sapiens) | IC50 [4] |
| --- | --- | --- | --- | --- | --- | --- | --- | --- |
| 1,5-Dichloro-9-(p-toluoxy)-anthracene [Compound 3o] | 2.9% | 25.6% | 11.2 µM | 865 µM | – | – | – | – |
| Cc1c(C)c2c(c(C)c1O)CC[C@@](C)(CCC[C@H](C)CCC[C@H](C)CCCC(C)C)O2 [(+)-a-Tocopherol, reference compound] | 61.6% | 100% | – | – | – | – | – | – |
| O=C(Oc1c2cccc(Cl)c2cc2cccc(Cl)c12)c1ccccc1 [Compound 3L, 1,5-Dichloro-9-benzoyloxy-anthracene] | 4.6% | 14.0% | – | – | 1440 µM | 226 µM | 813 µM | – |
| CC(=O)Oc1c2cccc(Cl)c2cc2cccc(Cl)c12 [Compound 3a, 1,5-Dichloro-9-acetyloxy-anthracene] | 25.5% | 34.4% | – | – | 114 µM | 48.1 µM | 473 µM | – |
| O=C(CBr)Oc1c2cccc(Cl)c2cc2cccc(Cl)c12 [Compound 3b] | 100% | 100% | 19.2 µM | 136 µM | – | – | – | 1010 µM |
| O=C(CCl)Oc1c2cccc(Cl)c2cc2cccc(Cl)c12 [Compound 3c] | 100% | 100% | 106 µM | 528 µM | – | – | – | 1.2 µM |
| CCC(=O)Oc1c2cccc(Cl)c2cc2cccc(Cl)c12 [Compound 3d] | 100% | 100% | 17.2 µM | 471 µM | – | – | – | 1160 µM |
| CC(C)C(=O)Oc1c2cccc(Cl)c2cc2cccc(Cl)c12 [Compound 3e] | 1.5% | 28.6% | 196 µM | 431 µM | – | – | – | 1310 µM |
| CC(Cl)C(=O)Oc1c2cccc(Cl)c2cc2cccc(Cl)c12 (stereo not drawn) [Compound 3f] | 9.8% | 60.6% | 126 µM | 374 µM | – | – | – | 955 µM |
| O=C(Oc1c2cccc(Cl)c2cc2cccc(Cl)c12)C(Cl)Cl [Compound 3g] | 61.7% | 100% | 1.4 µM | 528 µM | – | – | – | 1280 µM |
| CCCC(=O)Oc1c2cccc(Cl)c2cc2cccc(Cl)c12 [Compound 3h] | 11.8% | 17.7% | 572 µM | 544 µM | – | – | – | 0.1 µM |
| O=C(CCCBr)Oc1c2cccc(Cl)c2cc2cccc(Cl)c12 [Compound 3i] | 38.1% | 100% | 205 µM | 457 µM | – | – | – | 110 µM |
| O=C(CCCCl)Oc1c2cccc(Cl)c2cc2cccc(Cl)c12 [Compound 3j] | 10.0% | 29.0% | 1.1 µM | 11 µM | – | – | – | 1170 µM |
| CCCCCC(=O)Oc1c2cccc(Cl)c2cc2cccc(Cl)c12 [Compound 3k] | 12.2% | 17.2% | 1.2 µM | 317 µM | – | – | – | 55.1 µM |
| Cc1ccccc1C(=O)Oc1c2cccc(Cl)c2cc2cccc(Cl)c12 [Compound 3m] | 0% | 23.0% | 108 µM | 1140 µM | – | – | – | 1510 µM |
| Cc1cccc(C(=O)Oc2c3cccc(Cl)c3cc3cccc(Cl)c23)c1 [Compound 3n, 1,5-Dichloro-9-(m-toluyloxy)-anthracene] | 10.9% | 22.4% | 398 µM | 111 µM | – | – | – | 1200 µM |
| O=C(Oc1c2cccc(Cl)c2cc2cccc(Cl)c12)c1cccc(Cl)c1 [Compound 3p] | 8.6% | 30.6% | 11.7 µM | 1050 µM | – | – | – | – |
| COc1cc(Cl)ccc1C(=O)Oc1c2cccc(Cl)c2cc2cccc(Cl)c12 [Compound 3t] | 0% | 10.3% | 10.8 µM | 818 µM | – | – | – | 114 µM |
| O=C(Oc1c2cccc(Cl)c2cc2cccc(Cl)c12)c1ccc(Cl)cc1Cl [Compound 3u] | 1.7% | 16.0% | 87.7 µM | 108 µM | – | – | – | 1180 µM |
| O=C(Cc1ccccc1)Oc1c2cccc(Cl)c2cc2cccc(Cl)c12 [Compound 3v] | 13.7% | 32.8% | 110 µM | 12.6 µM | – | – | – | 1190 µM |
| O=C(CCc1ccccc1)Oc1c2cccc(Cl)c2cc2cccc(Cl)c12 [Compound 3w] | 29.3% | 36.6% | 1730 µM | 936 µM | – | – | – | 1160 µM |
| COc1cccc2c1C(=O)c1c(O)c3c(c(O)c1C2=O)C[C@@](O)(C(=O)CO)C[C@@H]3O[C@H]1C[C@H](N)[C@H](O)[C@H](C)O1 [Doxorubicin, reference compound] | – | – | – | – | 499 µM | 599 µM | 420 µM | – |
| CN(Cc1cnc2nc(N)nc(N)c2n1)c1ccc(C(=O)N[C@@H](CCC(=O)O)C(=O)O)cc1 [Methotrexate, reference compound] | – | – | – | – | 9140 µM | 9290 µM | 47200 µM | – |
| CO[C@@]12[C@H](COC(N)=O)C3=C(C(=O)C(C)=C(N)C3=O)N1C[C@@H]1N[C@@H]12 [Mitomycin-C, reference compound] | – | – | 1900 µM | – | – | – | – | 2120 µM |
